Article PMC3784060 (Cancer Chemotherapy and Pharmacology, 2013)
Like-named read-outs stand apart in the source and are kept apart here.

How the values were obtained:
[1] = test system: acute leukemia (WBC count); settings: cited from earlier work
[2] = test system: relapsed/refractory AML and ALL; test: phase II study in acute leukemia: response, blast/WBC reduction, time to progression; format: in vivo, human
Procedure: Each cycle lasted 21 days. Patient could continue treatment on the study in the absence of disease progression or unacceptable toxicity. The next cycle of therapy could start if non-hematologic toxicity from previous cycle recovered to ≤grade 1, and dose delay of up to 3 weeks was allowed for recovery. Permanent dose reduction was required for any ≥grade 3 clinically significant non-hematologic adverse event (70 mg/m^2 → 50 mg/m^2; 50 mg/m^2 → 40 mg/m^2; 40 mg/m^2 → 30 mg/m^2; 30 mg/m^2 → discontinue). To allow for continued treatment of subjects whose cytopenias were due to leukemia and not due to drug toxicity, subsequent cycles of treatment were allowed if absolute neutrophil count (ANC) ≥0.5 × 10^9/L or for ANC <0.5 × 10^9/L but no more than 20 % below the baseline pretreatment levels and platelet count ≥20 × 10^9/L or platelets <20 × 10^9/L but no more than 20 % below the baseline pretreatment levels. Anti-emetic prophylaxis including serotonin-receptor antagonist, metoclopramide, or prochloperazine with or without dexamethasone was allowed. […] Dexamethasone 20 mg IV was given early if symptoms of cytokine release syndrome were observed.
Response was assessed by bone marrow (BM) examination on day 21 of cycles 1 and 2, and every 6 weeks thereafter until complete remission or progressive disease (PD). Response was determined according to the revised recommendations of the International Working Group (IWG) for AML [33]. Toxicities were graded according to the National Cancer Institute Common Terminology Criteria for Adverse Events (NCI CTCAE), version 3.0 (http://ctep.cancer.gov/protocolDevelopment/electronic_applications/docs/ctcaev3.pdf). Hematologic and chemistry profiles were monitored on day 1 and 2 of each cycle or until resolution of acute toxicities and subsequently at least once a week or more frequently depending on the individual patient’s needs.
The primary efficacy endpoint of the study was the ORR, including complete remission (CR), CR with incomplete count recovery (CRi), and partial remission.

[3] = AML patients, all treated subjects

Compound: CN1CC[C@H](c2c(O)cc(O)c3c(=O)cc(-c4ccccc4Cl)oc23)[C@H](O)C1 [flavopiridol]
- patients with >50 % decrease in WBC count ([1]; 1-h bolus for 3 days): ~44%
- patients with >50 % decrease in WBC count ([1]; hybrid schedule for 3 days): approximately 83%

Compound: gemtuzumab ozogamicin [Mylotarg (GO), reference compound]
- Beta Posterior Mean (Bayes estimate of the response rate) [2, 3]: 0.167
- Number of Non-responders [2, 3]: 7
- Number of Responders [2, 3]: 1
- Posterior Probability (This treatment is better) [2, 3]: 0.801
- Observed Response Rate (%) ([2]; AML patients, all treated subjects, frequentist approach): 12.500%
- Median time to progression, Estimate ([2]; all treated AML patients): 7.57 weeks
- Number of Events (progression) ([2]; all treated AML patients): 7
- Hazard Ratio, Estimate (Mylotarg/Dinaciclib) ([2]; time to progression, all treated AML patients): 0.71
